Reference: paper PMC8037182, “Solvothermal Synthesis of Multiple Dihydropyrimidinones at a Time as Inhibitors of Eg5” (Molecules, 2021)

Key:
T24 cell line = test: Cytotoxicity MTS assay, T24 cell line; type: cell-based; conditions: for OD490 Mean / OD490 Well 1 / OD490 Well 2 / OD490 Well 3: T24 cell line
Protocol: (§1) The positive compounds (IC50 < 100 μM) obtained from the primary Eg5 motor protein ATPase assay were tested for antiproliferative activity in vitro against Caco-2 cell line, Hela cell line, L929 cell line and T24 cell line by performing MTS assay. Cells were introduced into 96-well plates at a density of 1000 cells per well. After 24 h incubation, the cells were exposed with compounds at final concentrations ranging from 0.5 to 100 µM for 24 h. DMSO was used at a final concentration of 0.025% as blank control, monastrol was used as the positive control. Then 20 µL (CellTiter 96® AQueous One Solution Promega, Madison, WI, USA) reagent was added in each well. After 2 h at 37 °C in a 80% humidified, 5% CO2 atmosphere, the absorbance at 490 nm was recorded using a microplate reader (BIO-RAD iMark^TM). The results were obtained in three independent duplicate experiments. The primary data were shown in Supplementary Materials Tables S4–S7. The IC50 values for these compounds were calculated from a non-linear regression graph plotted between the percentage of cell viability and concentration with SPSS17.0 software.

Hela cell line = test: Cytotoxicity MTS assay, Hela cell line; type: cell-based; conditions: for OD490 value, Mean / OD490 value, Well 1 / OD490 value, Well 2 / OD490 value, Well 3: Hela cell line, MTS
Protocol: as §1

Question: What does the source list for `CCOC(=O)c1c(C2NC(=O)NC(C)=C2C(=O)Nc2ccccc2OC)[nH]c(C(=O)OC)c1C` (centres unmarked) [D1]?
Answer: IC50 (T24 cell line; MTS assay, 24 h exposure): 130 µM; OD490 Mean (T24 cell line; 0.5μM, first assay): 1.7953; OD490 Well 1 (T24 cell line; 0.5μM, first assay): 1.9580; OD490 Well 2 (T24 cell line; 0.5μM, first assay): 1.8859; OD490 Well 3 (T24 cell line; 0.5μM, first assay): 1.5421; OD490 Mean (T24 cell line; 0.5μM, second assay): 1.6618; OD490 Well 1 (T24 cell line; 0.5μM, second assay): 1.6321; OD490 Well 2 (T24 cell line; 0.5μM, second assay): 1.6547; OD490 Well 3 (T24 cell line; 0.5μM, second assay): 1.6987; OD490 Mean (T24 cell line; 0.5μM, third assay): 1.6883; OD490 Well 1 (T24 cell line; 0.5μM, third assay): 1.6325; OD490 Well 2 (T24 cell line; 0.5μM, third assay): 1.6625; OD490 Well 3 (T24 cell line; 0.5μM, third assay): 1.7698; OD490 Mean (T24 cell line; 1μM, first assay): 1.8122; OD490 Well 1 (T24 cell line; 1μM, first assay): 1.9288; OD490 Well 2 (T24 cell line; 1μM, first assay): 1.8729; OD490 Well 3 (T24 cell line; 1μM, first assay): 1.6348; OD490 Mean (T24 cell line; 1μM, second assay): 1.5761; OD490 Well 1 (T24 cell line; 1μM, second assay): 1.5621; OD490 Well 2 (T24 cell line; 1μM, second assay): 1.7412; OD490 Well 3 (T24 cell line; 1μM, second assay): 1.4251; OD490 Mean (T24 cell line; 1μM, third assay): 1.7342; OD490 Well 1 (T24 cell line; 1μM, third assay): 1.7236; OD490 Well 2 (T24 cell line; 1μM, third assay): 1.7425; OD490 Well 3 (T24 cell line; 1μM, third assay): 1.7365; OD490 Mean (T24 cell line; 10μM, first assay): 1.8792; OD490 Well 1 (T24 cell line; 10μM, first assay): 2.1723; OD490 Well 2 (T24 cell line; 10μM, first assay): 1.7790; OD490 Well 3 (T24 cell line; 10μM, first assay): 1.6864; OD490 Mean (T24 cell line; 10μM, second assay): 1.7434; OD490 Well 1 (T24 cell line; 10μM, second assay): 1.9658; OD490 Well 2 (T24 cell line; 10μM, second assay): 1.6625; OD490 Well 3 (T24 cell line; 10μM, second assay): 1.6020; OD490 Mean (T24 cell line; 10μM, third assay): 1.7548; OD490 Well 1 (T24 cell line; 10μM, third assay): 1.7768; OD490 Well 2 (T24 cell line; 10μM, third assay): 1.8524; OD490 Well 3 (T24 cell line; 10μM, third assay): 1.6352; OD490 Mean (T24 cell line; 25μM, first assay): 1.7549; OD490 Well 1 (T24 cell line; 25μM, first assay): 1.8700; OD490 Well 2 (T24 cell line; 25μM, first assay): 1.7393; OD490 Well 3 (T24 cell line; 25μM, first assay): 1.6554; OD490 Mean (T24 cell line; 25μM, second assay): 1.7221; OD490 Well 1 (T24 cell line; 25μM, second assay): 1.6685; OD490 Well 2 (T24 cell line; 25μM, second assay): 1.7236; OD490 Well 3 (T24 cell line; 25μM, second assay): 1.7741; OD490 Mean (T24 cell line; 25μM, third assay): 1.8268; OD490 Well 1 (T24 cell line; 25μM, third assay): 1.7747; OD490 Well 2 (T24 cell line; 25μM, third assay): 1.7535; OD490 Well 3 (T24 cell line; 25μM, third assay): 1.9522; OD490 Mean (T24 cell line; 50μM, first assay): 1.5187; OD490 Well 1 (T24 cell line; 50μM, first assay): 1.4408; OD490 Well 2 (T24 cell line; 50μM, first assay): 1.5156; OD490 Well 3 (T24 cell line; 50μM, first assay): 1.5997; OD490 Mean (T24 cell line; 50μM, second assay): 1.5158; OD490 Well 1 (T24 cell line; 50μM, second assay): 1.5365; OD490 Well 2 (T24 cell line; 50μM, second assay): 1.5214; OD490 Well 3 (T24 cell line; 50μM, second assay): 1.4896; OD490 Mean (T24 cell line; 50μM, third assay): 1.4458; OD490 Well 1 (T24 cell line; 50μM, third assay): 1.4214; OD490 Well 2 (T24 cell line; 50μM, third assay): 1.4823; OD490 Well 3 (T24 cell line; 50μM, third assay): 1.4336; OD490 Mean (T24 cell line; 100μM, first assay): 1.4345; OD490 Well 1 (T24 cell line; 100μM, first assay): 1.4729; OD490 Well 2 (T24 cell line; 100μM, first assay): 1.3331; OD490 Well 3 (T24 cell line; 100μM, first assay): 1.4975; OD490 Mean (T24 cell line; 100μM, second assay): 1.3859; OD490 Well 1 (T24 cell line; 100μM, second assay): 1.3654; OD490 Well 2 (T24 cell line; 100μM, second assay): 1.5687; OD490 Well 3 (T24 cell line; 100μM, second assay): 1.2235; OD490 Mean (T24 cell line; 100μM, third assay): 1.3345; OD490 Well 1 (T24 cell line; 100μM, third assay): 1.3553; OD490 Well 2 (T24 cell line; 100μM, third assay): 1.4058; OD490 Well 3 (T24 cell line; 100μM, third assay): 1.2423; OD490 value, Mean (Hela cell line; 0.5μM, first assay): 2.5955; OD490 value, Well 1 (Hela cell line; 0.5μM, first assay): 2.6286; OD490 value, Well 2 (Hela cell line; 0.5μM, first assay): 2.5425; OD490 value, Well 3 (Hela cell line; 0.5μM, first assay): 2.6155; OD490 value, Mean (Hela cell line; 0.5μM, second assay): 2.5919; OD490 value, Well 1 (Hela cell line; 0.5μM, second assay): 2.6314; OD490 value, Well 2 (Hela cell line; 0.5μM, second assay): 2.6010; OD490 value, Well 3 (Hela cell line; 0.5μM, second assay): 2.5433; OD490 value, Mean (Hela cell line; 0.5μM, third assay): 2.5096; OD490 value, Well 1 (Hela cell line; 0.5μM, third assay): 2.7036; OD490 value, Well 2 (Hela cell line; 0.5μM, third assay): 2.5565; OD490 value, Well 3 (Hela cell line; 0.5μM, third assay): 2.2688; OD490 value, Mean (Hela cell line; 1μM, first assay): 2.6416; OD490 value, Well 1 (Hela cell line; 1μM, first assay): 2.6885; OD490 value, Well 2 (Hela cell line; 1μM, first assay): 2.5442; OD490 value, Well 3 (Hela cell line; 1μM, first assay): 2.6922; OD490 value, Mean (Hela cell line; 1μM, second assay): 2.5793; OD490 value, Well 1 (Hela cell line; 1μM, second assay): 2.5367; OD490 value, Well 2 (Hela cell line; 1μM, second assay): 2.4698; OD490 value, Well 3 (Hela cell line; 1μM, second assay): 2.7314; OD490 value, Mean (Hela cell line; 1μM, third assay): 2.7183; OD490 value, Well 1 (Hela cell line; 1μM, third assay): 2.6969; OD490 value, Well 2 (Hela cell line; 1μM, third assay): 2.7546; OD490 value, Well 3 (Hela cell line; 1μM, third assay): 2.7033; OD490 value, Mean (Hela cell line; 10μM, first assay): 2.4106; OD490 value, Well 1 (Hela cell line; 10μM, first assay): 2.3442; OD490 value, Well 2 (Hela cell line; 10μM, first assay): 2.5603; OD490 value, Well 3 (Hela cell line; 10μM, first assay): 2.3272; OD490 value, Mean (Hela cell line; 10μM, second assay): 2.3296; OD490 value, Well 1 (Hela cell line; 10μM, second assay): 2.6351; OD490 value, Well 2 (Hela cell line; 10μM, second assay): 2.1367; OD490 value, Well 3 (Hela cell line; 10μM, second assay): 2.2169; OD490 value, Mean (Hela cell line; 10μM, third assay): 2.4826; OD490 value, Well 1 (Hela cell line; 10μM, third assay): 2.5635; OD490 value, Well 2 (Hela cell line; 10μM, third assay): 2.3145; OD490 value, Well 3 (Hela cell line; 10μM, third assay): 2.5698; OD490 value, Mean (Hela cell line; 25μM, first assay): 2.1398; OD490 value, Well 1 (Hela cell line; 25μM, first assay): 2.1204; OD490 value, Well 2 (Hela cell line; 25μM, first assay): 2.2546; OD490 value, Well 3 (Hela cell line; 25μM, first assay): 2.0445; OD490 value, Mean (Hela cell line; 25μM, second assay): 2.1914; OD490 value, Well 1 (Hela cell line; 25μM, second assay): 2.2361; OD490 value, Well 2 (Hela cell line; 25μM, second assay): 2.1235; OD490 value, Well 3 (Hela cell line; 25μM, second assay): 2.2145; OD490 value, Mean (Hela cell line; 25μM, third assay): 2.1507; OD490 value, Well 1 (Hela cell line; 25μM, third assay): 2.2233; OD490 value, Well 2 (Hela cell line; 25μM, third assay): 2.2142; OD490 value, Well 3 (Hela cell line; 25μM, third assay): 2.0145; OD490 value, Mean (Hela cell line; 50μM, first assay): 2.0448; OD490 value, Well 1 (Hela cell line; 50μM, first assay): 2.0719; OD490 value, Well 2 (Hela cell line; 50μM, first assay): 2.1034; OD490 value, Well 3 (Hela cell line; 50μM, first assay): 1.9590; OD490 value, Mean (Hela cell line; 50μM, second assay): 2.0574; OD490 value, Well 1 (Hela cell line; 50μM, second assay): 1.9987; OD490 value, Well 2 (Hela cell line; 50μM, second assay): 2.1136; OD490 value, Well 3 (Hela cell line; 50μM, second assay): 2.0599; OD490 value, Mean (Hela cell line; 50μM, third assay): 2.0424; OD490 value, Well 1 (Hela cell line; 50μM, third assay): 2.0136; OD490 value, Well 2 (Hela cell line; 50μM, third assay): 1.9658; OD490 value, Well 3 (Hela cell line; 50μM, third assay): 2.1478; OD490 value, Mean (Hela cell line; 100μM, first assay): 1.9714; OD490 value, Well 1 (Hela cell line; 100μM, first assay): 1.9106; OD490 value, Well 2 (Hela cell line; 100μM, first assay): 1.9576; OD490 value, Well 3 (Hela cell line; 100μM, first assay): 2.0459; OD490 value, Mean (Hela cell line; 100μM, second assay): 1.9690; OD490 value, Well 1 (Hela cell line; 100μM, second assay): 2.0360; OD490 value, Well 2 (Hela cell line; 100μM, second assay): 1.8490; OD490 value, Well 3 (Hela cell line; 100μM, second assay): 2.0220; OD490 value, Mean (Hela cell line; 100μM, third assay): 1.9075; OD490 value, Well 1 (Hela cell line; 100μM, third assay): 2.0141; OD490 value, Well 2 (Hela cell line; 100μM, third assay): 1.8426; OD490 value, Well 3 (Hela cell line; 100μM, third assay): 1.8657; IC50 (Hela cell line; MTS assay, 24 h exposure): 128 µM
